Measurements reported in ChEMBL document CHEMBL1201862, “PubChem BioAssay data set” (2004).
The source made the active and inactive calls. Cut-off read from the data, not from the text of the source, for most assays here: actives have a measured AC50 and inactives only a lower limit.

Legend:
[1] = cells
[2] = target: T1, Oxysterols receptor LXR-beta (Homo sapiens, UniProt P55055); type: functional, cell-based;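 note: Cell-based luminescence dose-response assay of agonist activity at LXR, run as a confirmatory counterscreen to a daf-12 agonist screen; HEK293 cells with Gal4-LXR fusion and GAL4-driven luciferase reporter; agonist potency from rising luciferase signal of a Gal4-LXR reporter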
T1 sequence (P55055 whole entry): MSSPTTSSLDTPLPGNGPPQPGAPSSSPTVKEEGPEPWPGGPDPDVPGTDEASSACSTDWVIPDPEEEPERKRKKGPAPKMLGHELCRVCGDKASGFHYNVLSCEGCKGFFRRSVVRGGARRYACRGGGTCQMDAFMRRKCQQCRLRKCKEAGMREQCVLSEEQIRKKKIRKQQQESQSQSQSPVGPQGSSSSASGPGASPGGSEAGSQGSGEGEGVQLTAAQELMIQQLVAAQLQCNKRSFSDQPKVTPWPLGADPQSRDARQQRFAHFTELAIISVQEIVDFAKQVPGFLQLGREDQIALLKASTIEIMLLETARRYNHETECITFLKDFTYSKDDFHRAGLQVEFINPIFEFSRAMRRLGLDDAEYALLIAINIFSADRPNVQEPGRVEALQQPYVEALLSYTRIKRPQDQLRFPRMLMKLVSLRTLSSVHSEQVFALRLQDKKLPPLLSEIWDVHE

[3] = LGR2 antagonists, dose response, cell-based, HEK293, CRE-luciferase reporter, cherry pick, set 2 (AID 743343); type: functional;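 note: transfected cells were stimulated with diluted bursicon conditioned medium after compound addition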
[4] = A549 cell cytotoxicity, dose response, cytotoxicity control, plate reader, cherry-pick, antagonist series (AID 743412); type: functional, cell-based
[5] = HepG2 cell cytotoxicity, dose response, cytotoxicity control, plate reader, cherry-pick, antagonist series (AID 743416); type: functional, cell-based
[6] = HepG2 cell cytotoxicity, dose response, cytotoxicity control, ATP luminescence, cherry-pick, set 6 (AID 1053125); type: functional, cell-based
[7] = cells; conditions: HEK293
[8] = HEK293 Cytotoxicity Assay Measured in Cell-Based System Using Plate Reader - 7071-01_Inhibitor_Dose_CherryPick_Activity_Set2.; type: functional
[9] = tested on: HEK293; assay: HEK293T cell cytotoxicity, dose response, cytotoxicity control, ATP luminescence, cherry-pick samples (AID 687005); type: functional, cell-based; conditions: Homo sapiens;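 note: cells exposed to compound for 48 hours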
[10] = tested on: HeLa; assay: HeLa cell cytotoxicity, dose response, cytotoxicity control, ATP luminescence, cherry-pick samples (AID 687004); type: functional, cell-based; conditions: Homo sapiens
[11] = target: T2, Scavenger receptor class B member 1 (Mus musculus, UniProt Q61009); assay: inhibitors of SR-BI-mediated HDL uptake, dose response, cell-based, ldlA[mSR-BI] CHO, DiI fluorescence, dry powder, set 10 (AID 624029); type: functional
T2 sequence (Q61009 whole entry): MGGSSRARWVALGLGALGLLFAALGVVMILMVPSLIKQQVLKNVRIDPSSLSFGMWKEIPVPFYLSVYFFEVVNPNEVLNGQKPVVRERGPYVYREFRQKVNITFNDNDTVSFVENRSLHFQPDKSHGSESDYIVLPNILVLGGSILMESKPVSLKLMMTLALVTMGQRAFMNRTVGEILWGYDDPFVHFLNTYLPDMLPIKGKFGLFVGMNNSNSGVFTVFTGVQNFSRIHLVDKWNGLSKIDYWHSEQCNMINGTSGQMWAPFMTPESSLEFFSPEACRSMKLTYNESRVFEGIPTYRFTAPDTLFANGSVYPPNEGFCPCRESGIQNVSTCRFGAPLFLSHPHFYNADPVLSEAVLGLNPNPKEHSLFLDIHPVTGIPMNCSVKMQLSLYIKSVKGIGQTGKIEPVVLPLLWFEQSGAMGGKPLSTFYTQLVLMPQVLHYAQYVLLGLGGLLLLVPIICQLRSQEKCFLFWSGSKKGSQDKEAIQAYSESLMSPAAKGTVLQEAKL

[12] = target: T2, Scavenger receptor class B member 1; assay: inhibitors of SR-BI dependent HDL uptake, dose response, ldlA[mSR-BI] CHO cells, fluorescence plate reader, dry powder, set 9 (AID 623880); type: functional, cell-based
[13] = cells; type: functional, cell-based
[14] = target: T3, Trace amine-associated receptor 1 (Homo sapiens, UniProt Q96RJ0); assay: Counterscreen for agonists of the human trace amine associated receptor 1 (hTAAR1): Fluorescence-based cell-based high throughput dose response assay to identify hTAAR1 agonist that also desensitize TAAR1 receptor response.; type: functional
T3 sequence (Q96RJ0 whole entry): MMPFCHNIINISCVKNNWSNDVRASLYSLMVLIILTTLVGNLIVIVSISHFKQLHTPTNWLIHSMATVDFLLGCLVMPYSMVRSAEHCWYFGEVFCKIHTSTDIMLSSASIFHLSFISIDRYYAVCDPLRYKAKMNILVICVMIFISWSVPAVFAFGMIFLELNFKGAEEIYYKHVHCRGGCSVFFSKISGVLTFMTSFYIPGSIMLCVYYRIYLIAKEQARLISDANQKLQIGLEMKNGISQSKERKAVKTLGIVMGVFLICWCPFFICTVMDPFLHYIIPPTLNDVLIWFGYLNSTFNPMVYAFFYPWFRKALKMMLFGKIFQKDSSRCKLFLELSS

[15] = target: T3, Trace amine-associated receptor 1; assay: Fluorescence-based cell-based high throughput dose response assay to identify agonists of the human trace amine associated receptor 1 (TAAR1).; type: functional
[16] = cells; type: functional, cell-based; remark: listed apart in the source
[17] = IGROV1 ovarian cancer cell cytotoxicity, dose response, PAX8 inhibitor project, plate reader, dry powder samples (AID 743043); type: functional, cell-based; conditions: IGROV-1
[18] = target: Paired box protein Pax-8 (Homo sapiens, UniProt Q06710); assay: inhibitors of PAX8-driven TPO luciferase reporter, dose response, RMG-I cells, cherry-pick (AID 687027); type: functional, cell-based;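 note: luciferase reporter driven by Pax8 target thyroperoxidase promoter measured by SteadyGlo luminescence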
[19] = cytotoxicity in OVCAR8 ovarian cancer cells, dose response, PAX8 project, cell-based, plate reader, dry powder samples (AID 743197); type: functional; conditions: OVCAR-8
[20] = HIV Env cell-cell fusion inhibitors, dose response, HIV entry, plate reader, dry powder (AID 687023); type: functional, cell-based
[21] = cells; conditions: A549

Paired box protein Pax-8, sequence (Q06710 whole entry): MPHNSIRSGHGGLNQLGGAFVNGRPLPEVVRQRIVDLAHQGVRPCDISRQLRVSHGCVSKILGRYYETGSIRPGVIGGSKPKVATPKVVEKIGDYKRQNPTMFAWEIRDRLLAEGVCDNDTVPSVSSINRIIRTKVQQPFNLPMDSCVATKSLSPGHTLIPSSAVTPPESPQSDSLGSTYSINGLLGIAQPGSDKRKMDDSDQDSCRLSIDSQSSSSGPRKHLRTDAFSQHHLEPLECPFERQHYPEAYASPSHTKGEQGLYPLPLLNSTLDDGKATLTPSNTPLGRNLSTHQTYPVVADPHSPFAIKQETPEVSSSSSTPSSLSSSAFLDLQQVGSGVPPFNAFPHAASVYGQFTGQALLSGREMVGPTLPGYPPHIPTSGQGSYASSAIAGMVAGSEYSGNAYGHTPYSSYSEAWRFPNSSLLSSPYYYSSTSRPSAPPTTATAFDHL

For `NC(=O)c1c(NC(=O)c2ccccc2)sc2c1CCCC2`, the EC50 [1] was > 67.6 µM (inactive) and the EC50 [2] was > 67.6 µM (inactive).
For `CCCCn1nnnc1C(c1cc2ccccc2o1)N1CCN(c2ccncc2)CC1` (centres undefined), the AC50 [3] was 40.1 µM (active), the AC50 [4] was 32.6 µM (active) and the AC50 [5] was > 52 µM (inactive).
With `COc1ccc(CNC(=O)c2sc(=O)n(Cc3ccc(C)cc3)c2C)cc1OC` the AC50 [6] was > 52 µM (inactive) and the AC50 [7] was > 52 µM (inactive).
With `C[C@H]1CN([C@@H](C)CO)C(=O)Cc2cc(NC(=O)CCCCCC(=O)Nc3ccccc3N)ccc2O[C@H]1CN(C)Cc1ccc2c(c1)OCO2` the AC50 [8] was 22.8 µM (active), the AC50 [9] was 22.8 µM (active) and the AC50 [10] was 51.7 µM (active).
With `C[C@@H]1CN([C@H](C)CO[Si](C)(C)C(C)(C)C)C(=O)c2cc(NC(=O)C3CCCCC3)ccc2O[C@H]1CN(C)C(=O)c1ccc(Cl)cc1` the AC50 [11] was > 70 µM (inactive) and the AC50 [12] was > 70 µM (inactive).
In the case of `COC(=O)[C@]12C[C@H](CC(=O)NCCc3ccccc3OC)C(=O)N(Cc3ccccc3)C1=C[C@H](C(C)(C)C)O[C@@H]2C`, the IC50 [13] is reported as > 29.9 µM (inactive), the IC50 [14] is reported as 7.35 µM (active) and the EC50 [15] is reported as 2.45 µM (active). For the same compound, the EC50 [16] was > 29.9 µM (inactive).
In the case of `C[C@@H]1CN([C@H](C)CO)S(=O)(=O)c2ccc(-c3ccccc3)cc2O[C@H]1CN(C)C(=O)C1CCCCC1`, the AC50 [8] is reported as 16.2 µM (active), the AC50 [9] is reported as 16.2 µM (active) and the AC50 [10] is reported as > 52 µM (inactive).
For `C[C@@H]1CCCCO[C@@H](CN(C)Cc2ccc(C(F)(F)F)cc2)[C@H](C)CN([C@@H](C)CO)C(=O)c2cc(NS(=O)(=O)c3ccc(F)cc3)ccc2O1`, the AC50 [17] was 55.8 µM (active), the AC50 [18] was 5.83 µM (active) and the AC50 [19] was > 70 µM (inactive).
For `Cc1noc(C)c1S(=O)(=O)Nc1cccc2c1O[C@@H](CN(C)Cc1ccc(C(F)(F)F)cc1)[C@@H](C)CN([C@@H](C)CO)C2=O`, the AC50 [20] was 53.5 µM (active).
In the case of `O=[N+]([O-])c1cccc(Nc2c3ccccc3nc3ccccc23)c1`, the AC50 [21] is reported as 46.4 µM (active).
